Results as given in patent publication US20230391817A1, “5ALPHA-HYDROXY-6BETA-[2-(1-H-IMIDAZOL-4-YL)-ETHYLAMINO]-CHOLESTAN-3BETA-OL ANALOGUES AND PHARMACEUTICAL COMPOSITIONS COMPRISING SAME FOR USE IN THE TREATMENT OF CANCER” (priority 2020, published 2023).
Like-named read-outs stand apart in the source and are kept apart here.

Legend:
Assay type in all cases: cell-based
[1] = system: BT-474 human mammary tumor cells; experiment: Cell viability of BT-474 cells, MTT; details: for Mean LogIC50 (±SEM) / IC50: BT-474, MTT, 48 h; for Mean LogIC50 (±SEM): log of IC50 in μM; for IC50: Homo sapiens
Description: (§1) The cell viability is measured by three different methods. For the first method, MTT labeling is performed at 48 hours. This test is based on the use of the tetrazolium salt MTT (3-(4,5-dimethylthiazol-2-yl)-2,5-diphenyltetrazolium bromide). Tetrazolium is reduced by mitochondrial succinate dehydrogenase in active live cells to formazan, a purple colored precipitate. The amount of precipitate formed is proportional to the amount of live cells but also to the metabolic activity of each cell. Thus, a simple determination of the optical density at 550 nm by spectroscopy makes it possible to determine the relative amount of live and metabolically active cells. After 48 hours, the medium is aspirated, and the cells are incubated with MTT (0.5 mg/ml in culture medium) for about 3 hours. The MTT solution is aspirated and the purple crystals are dissolved in dimethyl sulfoxide (DMSO). The OD (optical density) is measured at 550 nm. The percentage of viability is then determined in each well against the CTL and the IC50 (concentration at which 50% of cells remain alive) is determined for each molecule with the Prism software using a nonlinear regression curve (log(inhibitor) vs. Response).
Cell viability tests were also performed on BT-474 human mammary tumor cells (characterized as triple positive HER2+, ER+, PR+). The BT-474 cells were in a cell culture medium identical to the previous example and seeded in 24-well plates at 70 000 cells per well for cell viability determination using trypan blue, or in 96-well plates at 13 000 cells per well for cell viability determination using the MTT or LDH assay. After 96 hours (h) of culture under normal conditions, i.e. in an incubator at 37° C. with […], BT-474 cells were treated for 48 h with DX101, DX103, DX105, DX111, DX123 and DX127 at 100 nM, 1 μM, 2.5 μM and 10 μM. A control is also performed using the protocol described previously without treatment with DX101, DX103, DX105, DX111, DX123 and DX127.
After a 10-minute trypsin digestion at 37° C., the cell survival was also quantified by means of a trypan blue test with automatic counting using the Biorad TC20 machine (TC20™ Automated Cell Counter). The trypan blue test is based on the integrity of cell membranes, which is disrupted in the dead cells. Trypan blue stains dead cells blue. The Biorad TC20 cell counter counts the proportion of blue and non-blue cells, and reports the percentage of cells. The percentage of viability is then determined in each well relative to the untreated cells and the IC50 is determined as explained in the preceding example. Also, the percentage viability of the BT-474 cells was determined using the MTT and LDH assay, performed as described in the preceding example.

[2] = system: murine 4T1 mammary tumor cells; experiment: Cell viability of 4T1 cells, MTT; details: for IC50: Mus musculus, 4T1, MTT, 48 h
Description: Cell viability tests were performed on murine 4T1 mammary tumor cells characterized as triple negative (HER2-, ER-, PR-).
For this experiment, a cell culture medium was prepared. The culture medium consisted of Dulbecco's Modified Eagle Medium (DMEM, sold by Westburg as LO BE12-604F), comprising 4.5 g/L glucose with L-glutamine, to which 10% fetal calf serum (FCS) and 50 U/ml penicillin/streptomycin are added. The 4T1 cells were introduced into this culture medium.
96-well plates were seeded with 2000 4T1 cells per well. After 72 hours (h) of culture under normal condition, i.e. in an incubator at 37° C. at […], the 4T1 cells were treated for 48 h with DX101, DX103, DX111, DX123, DX125, DX127 and DX129 at 100 nM, 1 μM, 2.5 μM and 10 μM. A control condition (CTL) is also performed in parallel using the previously described protocol without treatment with the molecules DX101, DX103, DX111, DX123, DX125, DX127 or DX129.
as §1

[3] = system: MCF-7 breast tumor cells; experiment: cells; details: for cell viability in MTT compared with the control: 1, 2.5 or 5 μM, 48 h; for viability at 5 µM: Homo sapiens, MCF7, 48 h, read-out: percentage of cell viability relative to the control group
Description: A cell viability test was performed on MCF-7 (Michigan Cancer Foundation-7) breast tumor cells […] (ER(+) cells).
The MCF-7 cells are in a cell culture medium identical to that of Example 5 and are seeded in 12-well plates at 50 000 cells per well. 24 hours after seeding, the cells are treated with vehicle solvate comprising water and ethanol with a 1% o ratio of ethanol, 3β-fluoro-5α-hydroxy-6β-[2-(1H-imidazol-4-yl)ethylamino]cholestane, and 5α-hydroxy-6β-[2-(1H-imidazol-4-yl)ethylamino]cholestan-3β-ol at 1, 2.5 or 5 μM. The cells are observed under an inverted microscope and photographed via the microscope camera at 24 h and 48 h. The morphological changes in the cells at 1 μM are very small. […] The effects are more marked at 2.5 μM and 5 μM with an increase in the number of dead cells. […] After 24 h of treatment with 3β-fluoro-5α-hydroxy-6β-[2-(1H-imidazol-4-yl)ethylamino]-cholestane at 5 μM, 99% of the observed cells are supernatant, reflecting cell death, and 1% of the cells are adherent and show white vesicles. […] The cytostatic effect is illustrated by an inhibition of cell proliferation.
The cell viability is measured by labeling with MTT at 48 hours. This test is based on the use of the tetrazolium salt MTT (3-(4,5-dimethylthiazol-2-yl)-2,5-diphenyltetrazolium bromide). Tetrazolium is reduced by mitochondrial succinate dehydrogenase in active living cells to formazan, a purple colored precipitate. The amount of precipitate formed is proportional to the amount of living cells but also to the metabolic activity of each cell. Thus, a simple determination of the optical density at 540 nm by spectroscopy makes it possible to determine the relative amount of living and metabolically active cells. After 48 hours, the medium is aspirated, and the cells are washed with phosphate-buffered saline (PBS) and then incubated with MTT (0.5 mg/ml in PBS) for about 2 hours. The MTT solution is aspirated and the purple crystals are dissolved in dimethyl sulfoxide (DMSO). The OD (optical density) is measured at 540 nm.
The control group is prepared in a similar manner to the groups studied without the addition of the molecules studied in the present text. […] For a concentration of 5 μM, the viability is close to 0%. This reflects the ability of the compound of formula (I) to kill mammary tumor cells.

[4] = log of IC50 in μM, read-out: Mean LogIC50 (±SEM) (converted)

Structure (SMILES) | Mean LogIC50 (±SEM) [1] | activity compared with DX101 ([1]; BT-474, Tables 2a, 2b and 2c (MTT, LDH, Trypan Blue)) | IC50 [1] [µM] | cytotoxic activity compared with DX101 ([2]; 4T1, Tables 1a, 1b and 1c (MTT, LDH, Green Cytotoxicity Assay)) | IC50 [2, 4] [µM] | IC50 ([2]; read-out: IC50) [µM] | cell viability in MTT compared with the control [3] | viability at 5 µM [3] [%]
CC(C)CCC[C@@H](C)[C@H]1CC[C@H]2[C@@H]3C[C@@H](NCCc4c[nH]cn4)[C@@]4(O)C[C@@H](F)CC[C@]4(C)[C@H]3CC[C@]12C [DX111, 3β-fluoro-5α-hydroxy-6β-[2-(1H-imidazol-4-yl)ethylamino]cholestane] | 0.95 ± 0.10 | similar | 8.94 | higher | 1.7 | 1.69 | dose-dependent decrease | ~0
CC(C)CCC[C@@H](C)[C@H]1CC[C@H]2[C@@H]3C[C@@H](NCCc4c[nH]cn4)[C@@]4(O)C[C@@H](O)CC[C@]4(C)[C@H]3CC[C@]12C [DX101, 5α-hydroxy-6β-[2-(1H-imidazol-4-yl)ethylamino]cholestan-3β-ol, reference compound] | 0.88 ± 0.03 | – | 7.53 | – | 4.37 | 4.4 | dose-dependent decrease | ~0
